Reference: paper doi:10.1101/2021.04.08.439011v1 (biorxiv, 2021)
Where two headings read alike, the source gives them in different places.

How the values were obtained:
EGFR(G719C) = EGFR(G719C) (Homo sapiens, UniProt P00533, G719C); details: 0.1 µM; binder
GAK = GAK (Homo sapiens, UniProt O14976); details: 0.1 µM; binder
WNK1 = WNK1 (Homo sapiens, UniProt Q9H4A3); details: 0.1 µM; binder
WNK2 = WNK2 (Homo sapiens, UniProt Q9Y3S1); details: 0.1 µM; binder
CHEK1 = CHEK1 (Homo sapiens, UniProt O14757); details: 0.1 µM; binder
INSR = INSR (Homo sapiens, UniProt P06213); details: 0.1 µM; binder
Chain of INSR (P06213 whole entry): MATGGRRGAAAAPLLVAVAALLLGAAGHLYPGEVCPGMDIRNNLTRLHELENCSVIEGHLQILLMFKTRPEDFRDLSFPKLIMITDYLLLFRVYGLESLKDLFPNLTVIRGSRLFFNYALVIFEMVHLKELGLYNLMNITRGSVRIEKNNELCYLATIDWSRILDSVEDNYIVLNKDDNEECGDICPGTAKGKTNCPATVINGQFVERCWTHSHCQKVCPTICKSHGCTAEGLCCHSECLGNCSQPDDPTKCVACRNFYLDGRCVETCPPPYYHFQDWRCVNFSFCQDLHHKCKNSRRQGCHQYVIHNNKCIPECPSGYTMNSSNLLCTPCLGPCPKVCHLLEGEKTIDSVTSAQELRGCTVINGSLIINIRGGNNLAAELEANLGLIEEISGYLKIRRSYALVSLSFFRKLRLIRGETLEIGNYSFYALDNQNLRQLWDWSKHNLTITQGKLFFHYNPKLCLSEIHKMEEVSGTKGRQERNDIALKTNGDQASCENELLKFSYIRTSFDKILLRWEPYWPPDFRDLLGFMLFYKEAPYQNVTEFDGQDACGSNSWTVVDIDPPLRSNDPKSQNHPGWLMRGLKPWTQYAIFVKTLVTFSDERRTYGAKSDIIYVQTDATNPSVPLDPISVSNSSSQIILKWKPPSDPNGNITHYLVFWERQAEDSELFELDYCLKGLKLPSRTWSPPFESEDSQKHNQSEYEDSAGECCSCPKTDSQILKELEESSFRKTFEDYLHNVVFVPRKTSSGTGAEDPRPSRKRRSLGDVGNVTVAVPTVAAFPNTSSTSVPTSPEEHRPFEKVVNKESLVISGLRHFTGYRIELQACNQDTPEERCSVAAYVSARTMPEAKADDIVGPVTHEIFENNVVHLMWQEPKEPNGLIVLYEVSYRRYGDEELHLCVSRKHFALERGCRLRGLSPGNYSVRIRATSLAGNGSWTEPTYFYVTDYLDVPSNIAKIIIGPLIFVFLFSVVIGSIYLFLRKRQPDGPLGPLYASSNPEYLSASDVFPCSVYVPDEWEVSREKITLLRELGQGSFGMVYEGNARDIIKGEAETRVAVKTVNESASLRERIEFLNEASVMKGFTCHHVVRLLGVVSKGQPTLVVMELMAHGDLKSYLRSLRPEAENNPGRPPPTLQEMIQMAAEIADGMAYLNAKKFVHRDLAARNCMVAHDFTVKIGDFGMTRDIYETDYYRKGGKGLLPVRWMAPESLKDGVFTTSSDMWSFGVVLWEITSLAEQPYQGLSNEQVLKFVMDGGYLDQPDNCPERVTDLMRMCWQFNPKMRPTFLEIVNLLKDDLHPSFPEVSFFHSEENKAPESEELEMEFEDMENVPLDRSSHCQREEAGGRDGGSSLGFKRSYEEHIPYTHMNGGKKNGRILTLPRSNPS

TTK = TTK (Homo sapiens, UniProt P33981); details: 0.1 µM; binder
GRK1 = GRK1 (Homo sapiens, UniProt Q15835); details: 0.1 µM; binder
Chain of GRK1 (Q15835 whole entry): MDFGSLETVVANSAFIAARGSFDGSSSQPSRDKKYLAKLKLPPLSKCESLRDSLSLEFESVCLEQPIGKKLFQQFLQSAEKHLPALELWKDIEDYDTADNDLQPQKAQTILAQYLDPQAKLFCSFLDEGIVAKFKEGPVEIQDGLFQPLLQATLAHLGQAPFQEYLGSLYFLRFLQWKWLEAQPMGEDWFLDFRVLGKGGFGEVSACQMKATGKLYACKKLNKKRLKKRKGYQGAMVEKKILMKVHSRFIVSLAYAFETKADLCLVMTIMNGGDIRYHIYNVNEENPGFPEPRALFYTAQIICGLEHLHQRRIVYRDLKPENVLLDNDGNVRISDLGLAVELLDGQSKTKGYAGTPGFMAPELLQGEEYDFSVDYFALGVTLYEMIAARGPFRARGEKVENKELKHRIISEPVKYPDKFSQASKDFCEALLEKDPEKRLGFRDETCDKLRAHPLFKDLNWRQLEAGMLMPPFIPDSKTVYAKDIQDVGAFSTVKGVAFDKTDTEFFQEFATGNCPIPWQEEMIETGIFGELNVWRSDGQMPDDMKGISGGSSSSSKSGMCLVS

LRRK2(G2019S) = LRRK2(G2019S) (Homo sapiens, UniProt Q5S007, G2019S); details: 0.1 µM; binder
MUSK = MUSK (Homo sapiens, UniProt O15146); details: 0.1 µM; binder
Chain of MUSK (O15146 whole entry): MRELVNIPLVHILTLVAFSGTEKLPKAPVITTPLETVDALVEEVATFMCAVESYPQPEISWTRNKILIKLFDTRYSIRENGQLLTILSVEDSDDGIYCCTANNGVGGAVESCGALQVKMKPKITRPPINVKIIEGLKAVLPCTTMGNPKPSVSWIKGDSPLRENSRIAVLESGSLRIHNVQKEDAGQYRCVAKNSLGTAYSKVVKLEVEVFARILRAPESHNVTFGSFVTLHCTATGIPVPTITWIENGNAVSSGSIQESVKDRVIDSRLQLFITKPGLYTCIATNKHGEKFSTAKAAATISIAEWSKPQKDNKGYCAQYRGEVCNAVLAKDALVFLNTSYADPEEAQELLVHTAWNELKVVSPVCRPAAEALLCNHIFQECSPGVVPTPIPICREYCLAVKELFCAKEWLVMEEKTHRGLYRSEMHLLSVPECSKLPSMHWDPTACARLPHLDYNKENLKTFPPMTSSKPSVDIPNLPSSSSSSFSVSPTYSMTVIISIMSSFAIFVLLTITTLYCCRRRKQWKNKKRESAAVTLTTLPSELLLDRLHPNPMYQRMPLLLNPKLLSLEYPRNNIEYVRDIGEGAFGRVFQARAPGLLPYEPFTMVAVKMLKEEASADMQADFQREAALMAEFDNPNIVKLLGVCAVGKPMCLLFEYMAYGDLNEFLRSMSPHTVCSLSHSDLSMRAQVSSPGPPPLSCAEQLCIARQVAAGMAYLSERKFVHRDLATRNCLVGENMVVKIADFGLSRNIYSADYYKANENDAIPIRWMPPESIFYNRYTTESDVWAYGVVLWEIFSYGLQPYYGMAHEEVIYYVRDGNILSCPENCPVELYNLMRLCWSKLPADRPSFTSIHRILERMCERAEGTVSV

PIK3CA(Q546K) = PIK3CA(Q546K) (Homo sapiens, UniProt P42336, Q546K); details: 0.1 µM; binder
FER = FER (Homo sapiens, UniProt P16591); details: 0.1 µM; binder
AAK1 = AAK1 (Homo sapiens, UniProt Q2M2I8); details: 0.1 µM; binder
EPHB4 = EPHB4 (Homo sapiens, UniProt P54760); details: 0.1 µM; binder
EGFR = EGFR (Homo sapiens, UniProt P00533); details: 0.1 µM; binder
PIK3CA = PIK3CA (Homo sapiens, UniProt P42336); details: 0.1 µM; binder
IRAK4 = IRAK4 (Homo sapiens, UniProt Q9NWZ3); details: 0.1 µM; binder
MYLK = MYLK (Homo sapiens, UniProt Q15746); details: 0.1 µM; binder
TAOK3 = TAOK3 (Homo sapiens, UniProt Q9H2K8); details: 0.1 µM; binder
RIPK1 = RIPK1 (Homo sapiens, UniProt Q13546); details: 0.1 µM; binder
ABL1(F317I) = ABL1(F317I) (Homo sapiens, UniProt P00519, F317I); details: 0.1 µM, binder
Chain of ABL1(F317I) (P00519 whole entry F317I): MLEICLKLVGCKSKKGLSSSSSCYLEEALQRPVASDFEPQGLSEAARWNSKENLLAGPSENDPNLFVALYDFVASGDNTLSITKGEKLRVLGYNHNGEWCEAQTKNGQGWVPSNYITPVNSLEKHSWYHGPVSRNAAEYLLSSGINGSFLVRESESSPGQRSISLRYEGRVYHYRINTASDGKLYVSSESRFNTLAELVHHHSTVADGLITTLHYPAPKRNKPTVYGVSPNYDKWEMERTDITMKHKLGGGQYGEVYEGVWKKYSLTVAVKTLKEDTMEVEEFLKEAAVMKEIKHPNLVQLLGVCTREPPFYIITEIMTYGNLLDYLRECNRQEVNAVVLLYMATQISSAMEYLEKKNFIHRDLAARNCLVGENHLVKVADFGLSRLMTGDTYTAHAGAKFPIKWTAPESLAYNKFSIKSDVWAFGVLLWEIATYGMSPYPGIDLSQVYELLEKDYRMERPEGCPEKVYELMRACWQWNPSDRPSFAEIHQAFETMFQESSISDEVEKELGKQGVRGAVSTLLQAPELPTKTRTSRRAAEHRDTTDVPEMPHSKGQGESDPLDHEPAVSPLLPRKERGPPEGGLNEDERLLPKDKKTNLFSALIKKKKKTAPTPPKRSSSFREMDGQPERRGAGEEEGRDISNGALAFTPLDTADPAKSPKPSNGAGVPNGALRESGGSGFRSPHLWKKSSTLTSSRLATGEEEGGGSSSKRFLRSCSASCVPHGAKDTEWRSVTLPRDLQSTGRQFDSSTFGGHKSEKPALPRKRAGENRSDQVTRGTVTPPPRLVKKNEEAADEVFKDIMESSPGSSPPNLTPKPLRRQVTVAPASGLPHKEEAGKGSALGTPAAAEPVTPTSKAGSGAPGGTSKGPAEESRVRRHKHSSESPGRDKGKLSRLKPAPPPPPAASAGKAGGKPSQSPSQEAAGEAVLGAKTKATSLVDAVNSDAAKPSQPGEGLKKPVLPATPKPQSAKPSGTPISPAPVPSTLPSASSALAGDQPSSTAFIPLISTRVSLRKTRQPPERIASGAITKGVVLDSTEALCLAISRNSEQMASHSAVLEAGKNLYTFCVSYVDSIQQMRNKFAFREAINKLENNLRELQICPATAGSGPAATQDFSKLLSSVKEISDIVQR

SNRK = SNRK (Homo sapiens, UniProt Q9NRH2); details: 0.1 µM; binder
CAMK1D = CAMK1D (Homo sapiens, UniProt Q8IU85); details: 0.1 µM; binder
CAMK1G = CAMK1G (Homo sapiens, UniProt Q96NX5); details: 0.1 µM; binder
MAP3K4 = MAP3K4 (Homo sapiens, UniProt Q9Y6R4); details: 0.1 µM; binder
SNARK = SNARK (Homo sapiens, UniProt Q9H093); details: 0.1 µM; binder
CAMK2B = CAMK2B (Homo sapiens, UniProt Q13554); details: 0.1 µM; binder
MEK4 = MEK4 (Homo sapiens, UniProt P45985); details: 0.1 µM; binder
MYLK3 = MYLK3 (Homo sapiens, UniProt Q32MK0); details: 0.1 µM; binder
Chain of MYLK3 (Q32MK0 whole entry): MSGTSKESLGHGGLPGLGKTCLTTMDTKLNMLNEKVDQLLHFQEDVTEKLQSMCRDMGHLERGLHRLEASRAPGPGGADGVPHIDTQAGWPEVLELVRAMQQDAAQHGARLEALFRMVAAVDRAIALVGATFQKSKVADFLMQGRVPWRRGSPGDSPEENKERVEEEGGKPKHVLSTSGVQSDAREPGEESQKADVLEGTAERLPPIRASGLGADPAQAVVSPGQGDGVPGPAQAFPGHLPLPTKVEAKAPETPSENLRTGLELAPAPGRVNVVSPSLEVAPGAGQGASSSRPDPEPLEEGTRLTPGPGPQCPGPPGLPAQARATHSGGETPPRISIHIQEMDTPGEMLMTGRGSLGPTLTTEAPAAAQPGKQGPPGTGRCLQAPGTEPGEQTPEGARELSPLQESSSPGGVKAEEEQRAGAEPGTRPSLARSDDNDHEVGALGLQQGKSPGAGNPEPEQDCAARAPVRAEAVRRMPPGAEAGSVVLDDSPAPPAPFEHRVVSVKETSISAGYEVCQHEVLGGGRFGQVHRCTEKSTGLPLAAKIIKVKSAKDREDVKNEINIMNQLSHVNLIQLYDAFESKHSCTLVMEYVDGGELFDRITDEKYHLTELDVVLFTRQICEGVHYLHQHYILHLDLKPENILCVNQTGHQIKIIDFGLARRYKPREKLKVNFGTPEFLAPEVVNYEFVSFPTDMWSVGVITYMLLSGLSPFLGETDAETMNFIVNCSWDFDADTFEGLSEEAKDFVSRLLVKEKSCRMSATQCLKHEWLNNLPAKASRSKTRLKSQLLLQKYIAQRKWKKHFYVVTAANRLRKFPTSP

ZAP70 = ZAP70 (Homo sapiens, UniProt P43403); details: 0.1 µM; binder
BRAF = BRAF (Homo sapiens, UniProt P15056); details: 0.1 µM; binder

CNc1ncc2cc(-c3ccc(-c4cccc(C)n4)cc3Cl)c(=O)n(C[C@H]3OC[C@H](N)CO3)c2n1 [compound 6, G-5555]
Percent Control (EGFR(G719C)): 100% | Percent Control (GAK): 51% | Percent Control (WNK1): 100% | Percent Control (WNK2): 100% | Percent Control (CHEK1): 100% | Percent Control (INSR): 95% | Percent Control (TTK): 100% | Percent Control (GRK1): 100% | Percent Control (LRRK2(G2019S)): 100% | Percent Control (MUSK): 100% | Percent Control (PIK3CA(Q546K)): 85% | Percent Control (FER): 100% | Percent Control (AAK1): 100% | Percent Control (EPHB4): 100% | Percent Control (EGFR): 100% | Percent Control (PIK3CA): 94% | Percent Control (IRAK4): 95% | Percent Control (MYLK): 75% | Percent Control (TAOK3): 100% | Percent Control (RIPK1): 100% | Percent Control (ABL1(F317I); nonphosphorylated): 100% | Percent Control (ABL1(F317I); phosphorylated): 87% | Percent Control (SNRK): 84% | Percent Control (CAMK1D): 43% | Percent Control (CAMK1G): 100% | Percent Control (MAP3K4): 84% | Percent Control (SNARK): 19% | Percent Control (CAMK2B): 100% | Percent Control (MEK4): 49% | Percent Control (MYLK3): 74% | Percent Control (ZAP70): 100% | Percent Control (BRAF): 100%
